Reference: patent US8921267B2, “Safening 6-(trisubstituted phenyl)-4-amino-2-pyridinecarboxylate herbicide injury on cereal crops” (Dow AgroSciences LLC, priority 2008, dated 2014)

Assays:
[1] = system: purple deadnettle (Lamium purpureum L; LAMPU); experiment: Postemergence herbicidal activity, greenhouse, visual injury: purple deadnettle; format: in vivo; design: key: visual injury, 0–100%: 0 = no injury, 100 = complete kill
Description: (§1) Evaluation of Postemergence Herbicidal Safening in Cereal Crops
(§2) Seeds of the desired test plant species were planted in Sun Gro MetroMix® 306 planting mixture, which typically has a pH of 6.0 to 6.8 and an organic matter content of about 30 percent, in plastic pots with a surface area of 103.2 square centimeters (cm^2). When required to ensure good germination and healthy plants, a fungicide treatment and/or other chemical or physical treatment was applied. The plants were grown for 7-36 days (d) in a greenhouse with an approximate 14-hour (h) photoperiod which was maintained at about 18° C. during the day and 17° C. during the night. Nutrients and water were added on a regular basis and supplemental lighting was provided with overhead metal halide 1000-Watt lamps as necessary. The plants were employed for testing when they reached the second or third true leaf stage.
(§3) Weighed amounts of esters (methyl) or salts (TEA [triethylammonium], K [potassium]) of 4-amino-3-chloro-6-(4-chloro-2-fluoro-3-methoxyphenyl)pyridine-2-carboxylic acid (Compound 1) were dissolved in a volume of 97:3 volume/volume (v/v) acetone/dimethylsulfoxide (DMSO) to obtain stock solutions. […] The concentrated stock solutions were diluted with an aqueous mixture of 1.5% v/v of Agri-dex crop oil concentrate to provide the appropriate application rates. Compound requirements are based upon a 12 mL application volume at a rate of 187 liters per hectare (L/ha). Stocks solutions of the safeners were prepared following the same procedure. Spray solutions of the safeners and experimental compound mixtures were prepared by adding the stock solutions to the appropriate amount of dilution solution to form a 12 mL spray solution with active ingredients in two-way combinations. Formulated compounds were applied to the plant material with an overhead Mandel track sprayer equipped with 8002E nozzles calibrated to deliver 187 L/ha over an application area of 0.503 square meters (m^2) at a spray height of 18 inches (43 centimeters (cm)) above average plant canopy. Control plants were sprayed in the same manner with the solvent blank.
(§4) The treated plants and control plants were placed in a greenhouse as described above and watered by sub-irrigation to prevent wash-off of the test compounds. After 20-22 d, the condition of the test plants as compared with that of the control plants was determined visually and scored on a scale of 0 to 100 percent where 0 corresponds to no injury and 100 corresponds to complete kill.
(§5) Colby's equation was used to determine the herbicidal effects expected from the mixtures (Colby, S. R. Calculation of the synergistic and antagonistic response of herbicide combinations. Weeds 1967, 15, 20-22.).
(§6) The following equation was used to calculate the expected activity of mixtures containing two active ingredients, A and B: Expected=A+B−(A×B/100)
(§7) A=observed efficacy of active ingredient A at the same concentration as used in the mixture.
(§8) B=observed efficacy of active ingredient B at the same concentration as used in the mixture.

[2] = system: corn poppy (Papaver rhoeas L; PAPRH); experiment: Postemergence herbicidal activity, greenhouse, visual injury: corn poppy; format: in vivo
Description: as §1, §2, §3, §4, §5, §6, §7, §8

[3] = system: barley (HORVW); experiment: Postemergence herbicidal safening, greenhouse, visual injury: barley (HORVW)
[4] = system: durum wheat (Triticum durum L; TRZDU); experiment: Postemergence herbicidal safening, greenhouse, visual injury: durum wheat; format: in vivo
Description: as §1, §2, §3, §4, §5, §6, §7, §8

[5] = system: wheat (Triticum aestivum L; TRZAS); experiment: Postemergence herbicidal safening, greenhouse, visual injury: wheat; format: in vivo
Description: as §1, §2, §3, §4, §5, §6, §7, §8

[6] = system: barley (Hordeum vulgare L; HORVS); experiment: Postemergence herbicidal safening, greenhouse, visual injury: barley; format: in vivo
Description: as §1, §2, §3, §4, §5, §6, §7, §8

[7] = system: wheat (Triticum aestivum L; TRZAW); experiment: Postemergence herbicidal safening, greenhouse, visual injury: wheat (TRZAW); format: in vivo
Description: as §1, §2, §3, §4, §5, §6, §7, §8

[8] = Compound 1 Methyl ester 35 g/ha alone

In the case of `O=C(O)C1=NOC(c2ccccc2)(c2ccccc2)C1` [Isoxadifen], the “LAMPU Ob (Observed values)” value ([1]; safener 4.4 g/ha alone) was 0, the “LAMPU Ob (Observed values)” value ([1]; safener 8.8 g/ha alone) was 0 and the “LAMPU Ob (Observed values)” value ([1]; safener 17.5 g/ha alone) was 0. The “LAMPU Ob (Observed values)” value ([1]; safener 35 g/ha alone) was 0, the “PAPRH Ob (Observed values)” value ([2]; safener 4.4 g/ha alone) was 0 and the “PAPRH Ob (Observed values)” value ([2]; safener 8.8 g/ha alone) was 0. For the same molecule, the “PAPRH Ob (Observed values)” value ([2]; safener 17.5 g/ha alone) was 0, the “PAPRH Ob (Observed values)” value ([2]; safener 35 g/ha alone) was 0 and the HORVW Ob (Observed values) ([3]; safener 4.4 g/ha alone) was 0%. The HORVW Ob (Observed values) ([3]; safener 8.8 g/ha alone) was 0%, the HORVW Ob (Observed values) ([3]; safener 17.5 g/ha alone) was 0% and the HORVW Ob (Observed values) ([3]; safener 35 g/ha alone) was 0%. For the same molecule, the TRZDU Ob (Observed values) ([4]; safener 4.4 g/ha alone) was 0%, the TRZDU Ob (Observed values) ([4]; safener 8.8 g/ha alone) was 0% and the TRZDU Ob (Observed values) ([4]; safener 17.5 g/ha alone) was 0%. The TRZDU Ob (Observed values) ([4]; safener 35 g/ha alone) was 0%, the “TRZAS Ob (Observed values)” value ([5]; safener 4.4 g/ha alone) was 0 and the “TRZAS Ob (Observed values)” value ([5]; safener 8.8 g/ha alone) was 0. For the same molecule, the “TRZAS Ob (Observed values)” value ([5]; safener 17.5 g/ha alone) was 0, the “TRZAS Ob (Observed values)” value ([5]; safener 35 g/ha alone) was 0 and the “HORVS Ob (Observed values)” value ([6]; safener 4.4 g/ha alone) was 0. The “HORVS Ob (Observed values)” value ([6]; safener 8.8 g/ha alone) was 0, the “HORVS Ob (Observed values)” value ([6]; safener 17.5 g/ha alone) was 0 and the “HORVS Ob (Observed values)” value ([6]; safener 35 g/ha alone) was 0. For the same molecule, the TRZAW Ob (Observed values) ([7]; safener 4.4 g/ha alone) was 0%, the TRZAW Ob (Observed values) ([7]; safener 8.8 g/ha alone) was 0% and the TRZAW Ob (Observed values) ([7]; safener 17.5 g/ha alone) was 0%. It also gave a TRZAW Ob (Observed values) ([7]; safener 35 g/ha alone) of 0%.
With `COC(=O)c1nc(-c2ccc(Cl)c(OC)c2F)cc(N)c1Cl` [1 Methyl ester] the “LAMPU Ob (Observed values)” value [1, 8] was 97, the “PAPRH Ob (Observed values)” value [2, 8] was 97 and the HORVW Ob (Observed values) [3, 8] was 50%. For the same molecule, the TRZDU Ob (Observed values) [4, 8] was 42%, the “TRZAS Ob (Observed values)” value [5, 8] was 50 and the “HORVS Ob (Observed values)” value [6, 8] was 33. For the same molecule, the TRZAW Ob (Observed values) [7, 8] was 35%.
